Source: patent US20240294876A1, “METHODS FOR THE EXPANSION OF HUMAN GRANULOCYTE-MACROPHAGE PROGENITORS AND APPLICATIONS THEREOF” (University of Southern California, priority 2021, published 2024)

T1: myeloperoxidase (MPO) (Mus musculus, UniProt P11247)
T1 construct: The supernatants were harvested and MPO activities were measured using the neutrophil MPO activity assay kit; endogenous in cells; host or cells: mouse SCF/2i GMPs, SCF/2i GMP-derived granulocytes and mouse blood neutrophils; MPO measured in culture supernatant after PMA stimulation
T1 sequence (P11247 139-718): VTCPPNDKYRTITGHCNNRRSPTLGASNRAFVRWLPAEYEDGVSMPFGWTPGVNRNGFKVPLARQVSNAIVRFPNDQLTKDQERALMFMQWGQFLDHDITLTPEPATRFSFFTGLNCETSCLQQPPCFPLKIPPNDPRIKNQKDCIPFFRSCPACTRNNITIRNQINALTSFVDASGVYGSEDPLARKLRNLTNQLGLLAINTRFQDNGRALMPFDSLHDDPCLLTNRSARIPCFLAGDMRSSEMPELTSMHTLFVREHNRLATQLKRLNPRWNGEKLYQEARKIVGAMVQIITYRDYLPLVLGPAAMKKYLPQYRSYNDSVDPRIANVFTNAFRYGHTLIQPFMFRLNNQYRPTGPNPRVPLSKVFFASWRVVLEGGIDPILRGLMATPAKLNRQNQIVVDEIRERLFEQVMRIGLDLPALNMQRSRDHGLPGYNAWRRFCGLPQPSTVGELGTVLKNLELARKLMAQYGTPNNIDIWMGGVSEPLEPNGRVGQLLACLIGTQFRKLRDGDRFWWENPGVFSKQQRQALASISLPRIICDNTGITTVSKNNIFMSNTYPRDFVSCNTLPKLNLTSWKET


Columns and labels:
mouse GMPs = experiment: Ex vivo expansion of mouse bone marrow-derived cells / mouse GMPs; format: cell-based; settings: for ability to mimic the effect of SKL2001 for the expansion of mouse GMPs: in place of SKL2001; for effect on expansion of mouse GMPs in SCF/2i: Wnt/β-catenin signaling inhibitor added to SCF/2i
Excerpt: (§1) (A) Schematic of the experimental design to identify growth factors and small molecules that can promote expansion of mouse bone marrow-derived stem cells. (B) Representative phase-contrast images of mouse bone marrow cells cultured in N2B27 supplemented with the indicated small molecule inhibitors for 7 days. (C) Representative phase-contrast images of mouse bone marrow cells cultured in N2B27 supplemented with SCF plus GDC0879 or SB590885 for 3 passages. (D) Cell growth curves. Bone marrow cells isolated from C57BL/6J mice were plated into 24-well plates at a density of 2×10^5 cells/well and cultured in B7 medium supplemented with the indicated small molecules/growth factor. Cells were counted and passaged every 3 days. Data are represented as mean±SD from three independent experiments. (E) Bone marrow cells isolated from C57BL/6J mice were cultured in B7 medium supplemented with SCF/2i. Cells were passaged every 3 days. Representative phase-contrast pictures showing SCF/2i cells at different passages. (F) Cytogenetic analysis of SCF/2i cells using the GWT banding method. Bone marrow cells isolated from a female C57BL/6J mouse were expanded in SCF/2i for 8 passages before used for cytogenetic analysis. […] (G) Sequential images of individual bone marrow cells during expansion in B7 medium supplemented with SCF/2i. SCF/2i-expanded bone marrow cells were plated into 96-well plates at a density of 50 cells/well and cultured in SCF/2i. Sequential images were taken using the Keyence BZ-X710 microscopy every 24 hours. 15.7±4.0 colonies formed per well on day 4 (n=3×96). Data are represented as mean±SD from three independent experiments.
Mouse GMP derivation, expansion, and differentiation. Cells were cultured at 37° C. in a 5% CO2 water jacket incubator (Thermo Scientific). Bone marrow cells isolated from C57BL/6J, mTmG or CAG-Cas9-EGFP mice were plated into 6-well plates at a density of 2×10^6 cells/well and cultured in 2 mL B7 medium supplemented with 50 ng/mL SCF, 1 μM GDC-0879, and 10 μM SKL2001 (SCF/2i). After 3-4 days, cells were dissociated into single-cell suspension by pipetting up and down and replated into 6-well plates at a density of 2×10^6 cells/well and cultured in 2 mL B7 medium supplemented with SCF/2i. After 2 passages in SCF/2i, the majority of cells were GMPs. GMPs were routinely passaged every 3 days. To induce differentiation, GMPs were plated into 10 cm tissue culture dishes and cultured in RPMI-1640 medium containing 10% FBS and supplemented with either 20 ng/mL M-CSF (for macrophage differentiation) or 20 ng/mL G-CSF (for granulocyte differentiation). GMP-derived macrophages were harvested on day 7 (medium was changed once on day 4) and GMP-derived granulocytes were harvested on day 3 and used for the further experiments.
Development of defined conditions for the long-term ex vivo expansion of hematopoietic stem/progenitor cells. To develop conditions for the long-term expansion of stem or progenitor cells of the hematopoietic system, screening was conducted to identify small molecules and growth factors/cytokines that can promote their ex vivo expansion (see FIG. 3A). Specifically, bone marrow cells isolated from adult C57BL/6 mice were plated into 96-well plates in serum-free N2B27 medium. Then a first-round small molecule screening was performed. It was reasoned that if a small molecule can block differentiation or promote expansion of stem cells, these stem cells should form colonies with a uniform cell morphology. […] Upon passaging, however, no new colonies were formed in culture with any of the 5 small molecule inhibitors. A second-round screening was conducted to identify growth factors/cytokines that could further improve the expansion of the colonies.
More importantly, these cells could be expanded robustly at clonal density (see FIG. 3G).
SCF/2i-expanded cells are GMPs. […]

[1] = system: bone marrow cells isolated from adult C57BL/6 mice; experiment: Small molecule screen for colony formation of mouse bone marrow cells in serum-free N2B27; format: cell-based; settings: 96-well plates, serum-free N2B27, single small molecule, 7 days in culture
Excerpt: as §1
Based on this finding, it was postulated that many, if not all, types of stem cells can be maintained during long-term in vitro culture by inhibiting signaling pathways responsible for initiating differentiation. […]

myeloperoxidase (MPO) = biological target: T1, myeloperoxidase (MPO); experiment: Myeloperoxidase (MPO) activity assay in SCF/2i GMP-derived granulocytes and blood neutrophils; format: cell-based; settings: 100 nM for 2 hours
Method: (F) ELISA analysis of cytokine secretion and MPO activity measurement in the indicated cells stimulated with 500 ng/ml LPS for 6 hours (for ELISA assay) or 100 nM PMA for 2 hours (for MPO assay). Data are represented as mean±SD from three independent experiments. Ctrl, no treatment control; ns, not significant.
Myeloperoxidase (MPO) assay. SCF/2i GMPs, blood neutrophils and SCF/2i GMP-derived granulocytes were plated into 96-well plates at a density of 2×10^4 cells/well and cultured in 100 μl RPMI 1640 medium supplemented with 10% FBS. […] The supernatants were harvested and MPO activities were measured using the neutrophil MPO activity assay kit (Cayman, 600620) according to the manufacturer's instructions.

SCF/2i GMPs = experiment: In vitro differentiation of SCF/2i GMPs, flow cytometry; format: cell-based, mouse
Method: (A) Immunofluorescence and flow cytometry analysis of CD11b and F4/80 expression in cells differentiated from SCF/2i GMPs after treatment with M-CSF for 7 days. Flow cytometry data are represented as mean±SD from three independent experiments. (B) ELISA analysis of cytokine secretion in bone marrow (BM) and SCF/2i GMP-derived macrophages stimulated with 500 ng/ml LPS for 6 hours. Data are represented as mean±SD from three independent experiments. (C) Phagocytosis analysis of SCF/2i GMP-derived macrophages by incubating with FITC-labeled latex beads for 1 hour. Upper panel, a representative fluorescent image (green, FITC-labeled beads; blue, macrophage cell nuclei). Lower panel, flow cytometry analysis of SCF/2i GMP-derived macrophages incubated with (red) or without (blue) FITC-labeled latex beads. Flow cytometry data are represented as mean±SD from three independent experiments. (D) Time-lapse images of tdTomato-positive SCF/2i GMP-derived macrophages incubated with GFP labeled E. coli. The numbers on the images indicate the times in minutes. Arrows and arrowheads indicate the bacteria engulfed by macrophages. (E) Giemsa staining (upper panel) and flow cytometry analysis (lower panel) of SCF/2i GMPs treated with PBS or G-CSF for 3 days. Flow cytometry data are represented as mean±SD (n=5). […] A total of 192×3 wells from three independent experiments were counted for each group. […]

| Molecule | ability to mimic the effect of SKL2001 for the expansion of mouse GMPs (mouse GMPs) | formation of colonies with uniform cell morphology [1] | also measured |
| --- | --- | --- | --- |
| Cc1c[nH]c(-c2cnc(NCCNc3ccc(C#N)cn3)nc2-c2ccc(Cl)cc2Cl)n1 [CHIR99021] | could not mimic the effect of SKL2001 | – | – |
| O=C(Nc1cccc2cccnc12)c1ccc(N2C(=O)[C@@H]3[C@H](C2=O)[C@@H]2C=C[C@H]3C2)cc1 [IWR1] | – | clusters of colonies were observed being formed | effect on expansion of mouse GMPs in SCF/2i (mouse GMPs): not affected |
| C[S+]([O-])c1ccc(-c2nc(-c3ccncc3)c(-c3ccc(F)cc3)[nH]2)cc1 (centres unmarked) [SB203580] | – | clusters of colonies were observed being formed | – |
| Cc1cccc(-c2nn(C(=S)Nc3ccccc3)cc2-c2ccnc3ccccc23)n1 [A-8301] | – | clusters of colonies were observed being formed | – |
| Wnt3a | could not mimic the effect of SKL2001 | – | – |
| Cc1cc([N+](=O)[O-])ccc1NS(=O)(=O)c1cc(Cl)ccc1Cl [FH535] | – | – | effect on expansion of mouse GMPs in SCF/2i (mouse GMPs): not affected |
| COc1cccc(-c2cc(NCc3ccc4c(c3)OCO4)nc(N)n2)c1 [Wnt agonist 1] | could not mimic the effect of SKL2001 | – | – |
| CCCCCCCCCCCCCC(=O)O[C@@H]1[C@@H](C)[C@@]2(O)[C@@H](C=C(CO)C[C@]3(O)C(=O)C(C)=C[C@@H]23)[C@@H]2C(C)(C)[C@]12OC(C)=O [PMA, phorbol myristate acetate] | – | – | MPO activity upon activation (myeloperoxidase (MPO)): significantly increased |
| G-CSF: granulocyte colony stimulating factor (protein, UniProt P09919 31-207, looked up) Granulocyte …: TPLGPASSLPQSFLLKCLEQVRKIQGDGAALQEKLVSECATYKLCHPEELVLLGHSLGIPWAPLSSCPSQALQLAGCLSQLHSGLFLYQGLLQALEGISPELGPTLDTLQLDVADFATTIWQQMEELGMAPALQPTQGAMPAFASAFQRRAGGVLVASHLQSFLEVSYRVLRHLAQP | – | – | cells Ly6G+CD115− (SCF/2i GMPs; SCF/2i GMPs treated for 3 days): more than 80% |
| M-CSF: macrophage differentiation factor (protein, UniProt P09603 33-554, looked up) Macrophage colony-stimulating …: EEVSEYCSHMIGSGHLQSLQRLIDSQMETSCQITFEFVDQEQLKDPVCYLKKAFLLVQDIMEDTMRFRDNTPNAIAIVQLQELSLRLKSCFTKDYEEHDKACVRTFYETPLQLLEKVKNVFNETKNLLDKDWNIFSKNCNNSFAECSSQDVVTKPDCNCLYPKAIPSSDPASVSPHQPLAPSMAPVAGLTWEDSEGTEGSSLLPGEQPLHTVDPGSAKQRPPRSTCQSFEPPETPVVKDSTIGGSPQPRPSVGAFNPGMEDILDSAMGTNWVPEEASGEASEIPVPQGTELSPSRPGGGSMQTEPARPSNFLSASSPLPASAKGQQPADVTGTALPRVGPVRPTGQDWNHTPQKTDHPSALLRDPPEPGSPRISSLRPQGLSNPSTLSAQPQLSRSHSSGSVLPLGELEGRRSTRDRRSPAEPEGGPASEGAARPLPRFNSVPLTDTGHERQSEGSFSPQLQESVFHLLVPSVILVLLAVGGLLFYRWRRRSHQEPQRADSPLEQPEGSPLTQDDRQVELPV | – | – | cells positive for both F4/80 and CD11b (SCF/2i GMPs; SCF/2i GMPs treated for 7 days): more than 99% |
